From article PMC13492380, “Dissecting Structural and Functional Determinants of Microtubules Stabilization through Guided Chemical Modulation” (Journal of Medicinal Chemistry, 2026)
Like-named read-outs stand apart in the source and are kept apart here.

Experiments:
[1] = test system: HeLa cells; assay: MTT cytotoxicity assay, HeLa; format: cell-based; conditions: Homo sapiens, 48 h, read-out: Cytotoxicity IC50 HeLa
Description: Antiproliferative assays were performed as described. […] Then, increasing concentrations of drugs were added and incubated for 48 h prior to the reaction with the MTT solution. IC50 values were obtained by fitting the experimental data (absorbance at 570/690 nm) to a four-parameter logistic curve using SigmaPlot 14.5 software package (Systat Software, Inc., San Jose, CA, USA) and IC50 values were expressed as mean ± SEM from three independent experiments, each performed in duplicate.

[2] = test system: A549 cells; assay: Indirect immunofluorescence of the microtubular network; format: cell-based, human; conditions: 24 h
Excerpt: We first assessed their impact on the cellular microtubular network. […] These defects manifested as multinucleated cells resulting from multiple abnormal star-like spindles, leading to an aberrant arrangement of chromosomes. […] We then evaluated their ability to overcome intrinsic resistance mechanisms using cell lines overexpressing βIII-tubulin isotype (HeLaβIII) or P-glycoprotein, PgP, (Kb-V1), compared to parental HeLa and Kb-3.1 cells.
2 Cellular and biochemical characterization of compounds 1a and 1b. (A) Effects of compounds on A549 cells. […] Top row panels are control cells treated with 0.5% DMSO (vehicle), with the usual and evenly distributed microtubular network in interphase and normal bipolar spindle with chromosomes aligned at the metaphase plate during mitosis. […] All images are shown at the same magnification; scale bar 10 μm. […] (C) Van’t Hoff Plot of the equilibrium binding constants of compounds 1a and 1b at the assayed temperatures. Error bars represent the standard error of the measurement.
DMSO was always less than 0.5% v/v. PEG and Triton X-100 were applied to cells prior the fixation with 3.7% formaldehyde, as previously described. Cells were incubated with a DM1A mouse monoclonal antibody (Sigma-Aldrich) reacting with α-tubulin. […] Images were recorded using a Leica DFC360 FX CCD camera.

[3] = test system: Tau-mCherry (Tau 441 isoform) on stabilized MTs from porcine brain tubulin; assay: Tau-mCherry binding to stabilized MTs (TIRF); format: biochemical; conditions: for initial Tau envelope coverage / Tau envelope growth velocity: 10 nM Tau-mCherry; for initial Tau envelope coverage: MTs polymerized in the presence of drug; for Tau-mCherry coating of stabilized MTs / Tau envelope coverage of MT length: 40 nM Tau-mCherry
Excerpt: Previous studies in vitro have shown that Tau molecules strongly prefer compacted GDP lattices. Tau binds cooperatively to MT surfaces, resulting in a cohesive layer depending on tau-tau interactions, termed MT envelope, which selectively regulates access to MT lattices, and shields MTs from severing enzymes. − On expanded PTX-MTs, Tau envelope also forms and the lattice can get locally compacted. To further explore how MT lattice structure influences Tau binding, we employed an in vitro reconstitution assay. We deposited stabilized MTs in a flow chamber, and visualized them via interference reflection microscopy (Figure C). We then added 10 nM Tau-mCherry (labeled purified Tau 441 isoform at the C-terminus with mCherry) and monitored its association with MTs using time-lapse TIRF microscopy. After 4 min, we increased Tau concentration to 40 nM, and continued imaging for an additional 4 min. We measured fluorescence intensities along MTs to quantify Tau binding (Movies S16–S27). […] PTXpost-MTs also supported […] faster envelope growth (0.20 ± 0.02 μm/s versus 0.054 ± 0.006 μm/s for PTXpre-MTs, Figure H).
Total Internal Reflection Fluorescence microscopy experiments were performed on an inverted widefield microscope Nikon-Ti2 E, equipped with a motorized XY-stage, a perfect focus system, Apo TIRF 60× oil NA 1.49 objective and PRIME BSY (Teledyne Photometrics) camera. MTs were visualized using Interference Reflection microscopy (IRM) and fluorescently labeled proteins were visualized sequentially by switching between microscope filter cubes for GFP and mCherry channels. The microscopes were controlled using NIS Elements software (Nikon). All experiments were conducted at RT.
Microscopy chambers were prepared from two sandwiched silanized glass coverslips (22 × 22 mm^2 and 18 × 18 mm^2) attached through parafilm strips (heated for 15–20 s at 60 °C and gently pressed together) to form ∼2.5 mm wide parallel flow channels. Prior to the chamber assembly, the coverslips were washed in 3 M KOH, cleaned using Zepto plasma cleaner (Diener electronic) and silanized with hexamethyldisilazane. Flow channels were first incubated with 40 μgml^–1 antibiotin antibodies (Sigma, B3640) in PBS for 10 min, followed by incubation with 1% Pluronic F127 (Sigma-Aldrich, P2443) in PBS for at least 1 h. F127 was washed with BRB80 (80 mM PIPES, 1 mM EGTA, 1 mM MgCl2, pH 6.9).
Porcine brain tubulin was isolated using the high-molarity PIPES procedure then mixed with Biotin labeled tubulin (Cytoskeleton Inc., T333P) in 1:49 ratio. All MTs were polymerized using 2% biotin-labeled tubulin. […] Polymerized MTs were centrifuged for 30 min at 18,000g in a Microfuge 18 Centrifuge (Beckman Coulter’s). […] Drug stabilized preassembly MTs (polymerized in the presence of drugs and GTP, stored and imaged in presence of drug) were polymerized from 4 mg mL^–1 biotinylated tubulin for 30 min at 37 °C in BRB80 supplemented with 4 mM MgCl2, 40 μM drug of interest in 5% DMSO, and 1 mM GTP. Polymerized MTs were centrifuged for 30 min at 18,000g in a Microfuge 18 Centrifuge (Beckman Coulter’s). […] GMPCPP stabilized MTs (GMPCPP polymerized) were assembled from 4 mg mL^–1 biotinylated tubulin for 2 h at 37 °C in BRB80 supplemented with 1 mM MgCl2 and 1 mM GMPCPP (Jena Bioscience, NU-405). Polymerized MTs were centrifuged for 30 min at 18,000g in a Microfuge 18 Centrifuge (Beckman Coulter’s) and pellets were resuspended and kept in BRB80.
Stabilized MTs were flushed into the channel and incubated for 15–30 s to allow for surface attachment. Unbound MTs were removed by washing with BRB80 supplemented with 10 μM of drug. Prior the experiment, the solution was exchanged by motility buffer, MB (BRB80 containing 10 mM DTT, 20 mM D-glucose, 0.1% Tween-20, 0.5 mg/mL casein, 1 mM Mg-ATP, 0.02 mg/mL catalase, 0.22 mg/mL glucose oxidase, 10 μM drug). Subsequently, a solution containing either 1.08 nM Kif5b-EGFP or 10/40 nM mCherry-Tau in MB was introduced into the chamber. […]

[4] = test system: taxane site of assembled cross-linked MTs; conditions: cited from earlier work
[5] = MTs polymerized in the presence of drug (preassembly)
[6] = equilibrium constants from anisotropy measurements, ref footnote c 'As in ref .' (number not given)
[7] = MTs stabilized with PTX after polymerization (PTXpost)
[8] = ref footnote b 'As in ref .' (number not given)

SMILES | IC50 [1] | selected concentration showing equivalent effect on microtubular network and mitotic spindles [2] | initial Tau envelope coverage [3] | Tau envelope growth velocity [3, 5] | Tau-mCherry coating of stabilized MTs [3] | IC50 ([1]; MTT, mean ± SEM) | K b 26 °C [4, 6] | K b 35 °C [4, 6] | K b 42 °C [4, 6] | Tau envelope growth velocity [3, 7] | Tau envelope coverage of MT length ([3]; MTs assembled in the presence of PTX (PTXpre)) | Tau envelope coverage of MT length [3, 7] | K b 26 °C [4, 8] | K b 35 °C [4, 8] | K b 42 °C [4, 8] | ΔG 0 app at 26 °C [4, 8] | ΔS 0 app [4, 8]
CC(=O)OC1C(=O)C2(C)C(OC(=O)CCCCC(=O)OC3CCc4ccccc43)CC3OCC3(OC(C)=O)C2C(OC(=O)c2ccccc2)C2(O)CC(OC(=O)C(O)C(NC(=O)c3ccccc3)c3ccccc3)C(C)=C1C2(C)C (stereo not shown) [1a, 7-O-(6″-O-(2‴,3‴-Dihydroinden-1‴-yl)hexanedioyl) Paclitaxel] | 180 ± 20 nM | 2 µM | 40% | 1.5 ± 0.1 μm/s | fully coated | – | – | – | – | – | – | – | – | – | – | – | –
COc1ccc2c(c1)CC(NC(=O)CCCCCCCC(=O)OC1CC3OCC3(OC(C)=O)C3C(OC(=O)c4ccccc4)C4(O)CC(OC(=O)C(O)C(NC(=O)c5ccccc5)c5ccccc5)C(C)=C(C(OC(C)=O)C(=O)C13C)C4(C)C)CC2 [1b, 7-O-((S)-9″-(7‴-Methoxy-1‴,2‴,3‴,4‴-tetrahydronaphthalen-2‴-yl)amino) −9″-oxononanoyl) Paclitaxel] | – | 1 µM | 20% | 0.46 ± 0.05 μm/s | fully coated | 100 ± 20 nM | – | – | – | – | – | – | – | – | – | – | –
CC(=O)O[C@H]1C(=O)[C@]2(C)[C@@H](OC(=O)[C@H](C)NC(=O)c3ccc(-c4c5cc(F)c(=O)cc-5oc5cc(O)c(F)cc45)c(C(=O)O)c3)C[C@H]3OC[C@@]3(OC(C)=O)[C@H]2[C@H](OC(=O)c2ccccc2)[C@]2(O)C[C@H](OC(=O)[C@H](O)[C@@H](NC(=O)c3ccccc3)c3ccccc3)C(C)=C1C2(C)C [FTX2, Flutax2] | – | – | 60% | 1.37 ± 0.09 μm/s | fully coated | – | (5.9 ± 0.3) × 10^7 M-1 | (2.2 ± 0.2) × 10^7 M-1 | (1.8 ± 0.2) × 10^7 M-1 | – | – | – | – | – | – | – | –
CC(=O)O[C@H]1C(=O)[C@@]2(C)[C@H]([C@H](OC(=O)c3ccccc3)[C@]3(O)C[C@H](OC(=O)[C@H](O)[C@@H](NC(=O)c4ccccc4)c4ccccc4)C(C)=C1C3(C)C)[C@]1(OC(C)=O)CO[C@@H]1C[C@@H]2O [PTX, Paclitaxel] | – | – | – | 0.054 ± 0.006 μm/s | – | – | – | – | – | 0.20 ± 0.02 μm/s | 30% | up to 60% | (2.64 ± 0.17) × 10^7 M-1 | (1.43 ± 0.17) × 10^7 M-1 | (0.94 ± 0.23) × 10^7 M-1 | –41.7 ± 0.2 kJ mol^–1 | –29.3 ± 13.1 J mol ^aK^–1
